# Data: ChEMBL document CHEMBL3232986, “Identification of a novel series of potent HCV NS5B Site I inhibitors” (Bioorg Med Chem Lett, 2014)
# What was measured:
# [1] = Permeability of the compound at pH 7.4 by PAMPA; assay type: physicochemical; settings: read-out: permeability
# [2] = Ratio of EC50 for HCV genotype 1a H77c replicon cells to IC50 for HCV genotype 1b wild type NS5B polymerase
# [3] = Cytotoxicity against human HuH7 cells after 4 hrs by CellTitre-Blue assay; assay type: cell-based, Huh-7
# [4] = Inhibition of HCV genotype 1b wild type NS5B polymerase using biotinylated oligo dT12 primer as substrate after 4 hrs in presence of [3H]UTP; design: species or system Hepatitis C virus subtype 1b
# Hepatitis C virus = assay: Antiviral activity against HCV genotype 1a H77c infected in human HuH7 cells after 3 days by luciferase reporter gene assay; assay type: functional, cell-based, Hepacivirus hominis; settings: Huh-7, 72 h
# [5] = (§1) Drug uptake in rat liver at 5 mg/kg, iv after 6 hrs; assay type: ADME, organism-based; design: dose 5 mg/kg, route intravenous; settings: liver, read-out: Drug uptake
# [6] = (§2) Plasma concentration in rat at 10 mg/kg, po after 6 hrs; assay type: ADME, organism-based; design: dose 10 mg/kg, route oral; settings: plasma
# [7] = (§3) Drug uptake in rat liver 10 mg/kg, po after 6 hrs; assay type: ADME, organism-based; design: dose 10 mg/kg, route oral; settings: liver, read-out: Drug uptake
# [8] = Clearance in rat after 6 hrs; assay type: ADME, organism-based; settings: in vivo
# [9] = (§4) Plasma concentration in rat at 5 mg/kg, iv after 6 hrs; assay type: ADME, organism-based; design: dose 5 mg/kg, route intravenous; settings: plasma
# Liver [10] = assay: as §1; assay type: ADME, organism-based; design: dose 5 mg/kg, route intravenous; settings: in vivo, 6 h, BLD = below limit of detection
# Plasma [11] = assay: as §2; assay type: ADME, organism-based; design: dose 10 mg/kg, route oral; settings: in vivo, 6 h, BLD = below limit of detection
# Liver [12] = assay: as §3; assay type: ADME, organism-based; design: dose 10 mg/kg, route oral; settings: in vivo, 6 h, BLD = below limit of detection
# [13] = Cytotoxicity against human HuH7 cells after 3 days by Alamar blue assay; assay type: cell-based, Huh-7
# Plasma [14] = assay: as §4; assay type: ADME, organism-based; design: dose 5 mg/kg, route intravenous; settings: in vivo, 6 h, BLD = below limit of detection
compound,measurement,setting,value
CNC(=O)N1CC23COCC2(C1)CN(C(=O)[C@]12C[C@H]1c1cc(OC)ccc1-c1c(C4CCCCC4)c4ccc(C(=O)NS(=O)(=O)N(C)C)cc4n1C2)C3 (stereo not given in full),Papp,[1],3.7 ×10⁻⁶ cm/s
same,Ratio,[2],43
same,CC50 at 4 h,[3],96 µM
same,IC50,[4],0.002 µM
same,EC50,Hepatitis C virus,0.086 µM
COc1ccc2c(c1)[C@@H]1C[C@]1(C(=O)N1CC34CCC3(CN(C(=O)N(C(C)C)C(C)C)C4)C1)Cn1c-2c(C2CCCCC2)c2ccc(C(=O)NS(=O)(=O)C(C)C)cc21 (stereo not given in full),CC50 at 4 h,[3],10 µM
same,IC50,[4],0.004 µM
same,EC50,Hepatitis C virus,0.037 µM
COc1ccc2c(c1)[C@@H]1C[C@]1(C(=O)N1CC34CCC3(CN(C(=O)N3CCOCC3)C4)C1)Cn1c-2c(C2CCCCC2)c2ccc(C(=O)NS(=O)(=O)C(C)C)cc21 (stereo not given in full),CC50 at 4 h,[3],27 µM
same,IC50,[4],0.005 µM
same,EC50,Hepatitis C virus,0.028 µM
CNC(=O)N1CC23COCC2(C1)CN(C(=O)[C@]12C[C@H]1c1cc(OC)ccc1-c1c(C4CCCCC4)c4ccc(C(=O)NS(=O)(=O)C(C)C)cc4n1C2)C3 (stereo not given in full),Papp,[1],1.8 ×10⁻⁶ cm/s
same,Ratio,[2],66
same,CC50 at 4 h,[3],> 100 µM
same,IC50,[4],0.003 µM
same,EC50,Hepatitis C virus,0.2 µM
CCOCCN1CC23COCC2(C1)CN(C(=O)[C@]12C[C@H]1c1cc(OC)ccc1-c1c(C4CCCCC4)c4ccc(C(=O)NS(=O)(=O)N(C)C)cc4n1C2)C3 (stereo not given in full),CC50 at 4 h,[3],16 µM
same,EC50,Hepatitis C virus,0.003 µM
COc1ccc2c(c1)[C@@H]1C[C@]1(C(=O)N1CC34COCC3(C1)CN(S(=O)(=O)C(C)C)C4)Cn1c-2c(C2CCCCC2)c2ccc(C(=O)NS(=O)(=O)C(C)C)cc21 (stereo not given in full),Ratio,[2],8
same,CC50 at 4 h,[3],17 µM
same,IC50,[4],0.002 µM
same,EC50,Hepatitis C virus,0.016 µM
COc1ccc2c(c1)[C@@H]1C[C@]1(C(=O)N1CC34CCCC3(CN(C)C4)C1)Cn1c-2c(C2CCCCC2)c2ccc(C(=O)NS(=O)(=O)C(C)C)cc21 (stereo not given in full),concentration at 6 h,[5],428 nM
same,concentration at 6 h,[6],24 nM
same,CC50 at 4 h,[3],11 µM
same,concentration at 6 h,[7],504 nM
same,clearance,[8],31 mL/min/kg
same,IC50,[4],0.003 µM
same,EC50,Hepatitis C virus,0.002 µM
same,concentration at 6 h,[9],22 nM
COc1ccc2c(c1)[C@@H]1C[C@]1(C(=O)N1CC34CCC3(CN(CC(F)(F)F)C4)C1)Cn1c-2c(C2CCCCC2)c2ccc(C(=O)NS(=O)(=O)N(C)C)cc21 (stereo not given in full),CC50 at 4 h,[3],26 µM
same,IC50,[4],0.004 µM
same,EC50,Hepatitis C virus,0.055 µM
COc1ccc2c(c1)[C@@H]1C[C@]1(C(=O)N1CC34CCC3(CN(C(=O)N(C(C)C)C(C)C)C4)C1)Cn1c-2c(C2CCCCC2)c2ccc(C(=O)NS(=O)(=O)N(C)C)cc21 (stereo not given in full),CC50 at 4 h,[3],7 µM
same,IC50,[4],0.007 µM
same,EC50,Hepatitis C virus,0.023 µM
COc1ccc2c(c1)[C@@H]1C[C@]1(C(=O)N1CC34COCC3(CN(C(C)=O)C4)C1)Cn1c-2c(C2CCCCC2)c2ccc(C(=O)NS(=O)(=O)N(C)C)cc21 (stereo not given in full),Ratio,[2],4
same,Drug uptake,Liver [10],BLD
same,Cp,Plasma [11],BLD
same,Drug uptake,Liver [12],BLD
same,clearance,[8],19 mL/min/kg
same,CC50 at 72 h,[13],24 µM
same,IC50,[4],0.002 µM
same,EC50,Hepatitis C virus,0.008 µM
same,Cp,Plasma [14],BLD
COc1ccc2c(c1)[C@@H]1C[C@]1(C(=O)N1CC34COCC3(CN(C)C4)C1)Cn1c-2c(C2CCCCC2)c2ccc(C(=O)NS(=O)(=O)C(C)C)cc21 (stereo not given in full),concentration at 6 h,[5],52 nM
same,concentration at 6 h,[6],2 nM
same,concentration at 6 h,[7],38 nM
same,clearance,[8],27 mL/min/kg
same,CC50 at 72 h,[13],14 µM
same,IC50,[4],0.004 µM
same,EC50,Hepatitis C virus,0.001 µM
same,concentration at 6 h,[9],6 nM
COc1ccc2c(c1)[C@@H]1C[C@]1(C(=O)N1CC34CCC3(C1)CN(C1CC1)C4)Cn1c-2c(C2CCCCC2)c2ccc(C(=O)NS(=O)(=O)C(C)C)cc21 (stereo not given in full),CC50 at 4 h,[3],18 µM
same,IC50,[4],0.005 µM
same,EC50,Hepatitis C virus,0.012 µM
COc1ccc2c(c1)[C@@H]1C[C@]1(C(=O)N1CC34CCC3(CN(C(C)=O)C4)C1)Cn1c-2c(C2CCCCC2)c2ccc(C(=O)NS(=O)(=O)C(C)C)cc21 (stereo not given in full),CC50 at 4 h,[3],37 µM
same,IC50,[4],0.002 µM
same,EC50,Hepatitis C virus,0.031 µM
COc1ccc2c(c1)[C@@H]1C[C@]1(C(=O)N1CC34CCC3(C1)CN(S(=O)(=O)C(C)C)C4)Cn1c-2c(C2CCCCC2)c2ccc(C(=O)NS(=O)(=O)C(C)C)cc21 (stereo not given in full),CC50 at 4 h,[3],10 µM
same,IC50,[4],0.004 µM
same,EC50,Hepatitis C virus,0.007 µM
COc1ccc2c(c1)[C@@H]1C[C@]1(C(=O)N1CC34CCC3(CN(C)C4)C1)Cn1c-2c(C2CCCCC2)c2ccc(C(=O)NS(=O)(=O)C(C)C)cc21 (stereo not given in full),concentration at 6 h,[5],138 nM
same,concentration at 6 h,[6],6 nM
same,CC50 at 4 h,[3],21 µM
same,concentration at 6 h,[7],146 nM
same,clearance,[8],24 mL/min/kg
same,IC50,[4],0.004 µM
same,EC50,Hepatitis C virus,0.004 µM
same,concentration at 6 h,[9],26 nM
COc1ccc2c(c1)[C@@H]1C[C@]1(C(=O)N1CC34COCC3(C1)CN(S(=O)(=O)C(C)C)C4)Cn1c-2c(C2CCCCC2)c2ccc(C(=O)NS(=O)(=O)N(C)C)cc21 (stereo not given in full),CC50 at 4 h,[3],12 µM
same,IC50,[4],0.002 µM
same,EC50,Hepatitis C virus,0.006 µM
COc1ccc2c(c1)[C@@H]1C[C@]1(C(=O)N1CC34CNCC3(CN(C)C4)C1)Cn1c-2c(C2CCCCC2)c2ccc(C(=O)NS(=O)(=O)C(C)C)cc21 (stereo not given in full),IC50,[4],0.005 µM
same,EC50,Hepatitis C virus,0.041 µM
